# Measurements from US6545007B2, “Methods for inhibiting the transmission of HIV using topically applied substituted 6-benzyl-4-oxopyrimidines” (Idenix (Cayman) Limited, priority 2000, dated 2003).
# Like-named read-outs stand apart in the source and are kept apart here.
# Columns and labels:
# [1] = system: HIV-1 (IIIB strain); type: cell-based; conditions: for EC50: anti-HIV-1 activity; for SI: selectivity index (CC50/EC50)
# Protocol: Compounds. Compounds were solubilized in DMSO at 200 mM and then diluted into culture medium.
# (§1) Cells and viruses. MT-4, C8166,H9/IIIB and CEM cells were grown at 37° C. in a 5% CO2 atmosphere in RPMI 1640 medium, supplemented with 10% fetal calf serum (FCS), 100 IU/mL penicillin and 100 μg/mL streptomycin. Cell cultures were checked periodically for the absence of mycoplasma contamination with a MycoTect Kit (Gibco). Human immunodeficiency virus type-I (HIV-1, IIIB strain) was obtained from supernatants of persistently infected H9/IIIB cells.
# HIV Titration. Titration of HIV was performed in C8166 cells by the standard limiting dilution method (dilution 1:2, four replica wells per dilution) in 96-well plates. The infectious virus titre was determined by light microscope scoring of cytopathicity after 4 days of incubation and the virus titres were expressed as CCID50/mL.
# (§2) Anti-HIV Assays. Activity of the compounds against HIV-1 and HIV-2 multiplication in acutely infected cells was based on the inhibition of virus-induced cytopathicity in MT-4 and C8166 cells, respectively. Briefly, 50 μL of culture medium containing 1×10^4 cells were added to each well of flat-bottom microtiter trays containing 50 μl of culture medium with or without various concentrations of the test compounds. Then 20 μL of an HIV suspension containing 100 CCID50 were added. After a 4-day incubation at 37° C., the number of viable cells was determined by the 3-(4,5-dimethylthiazol-[…])-2,5-diphenyltetrazolium bromide (MTT) method. Cytotoxicity of the compounds was evaluated in parallel with their antiviral activity. It was based on the viability of mock-infected cells, as monitored by the MTT method.
# [2] = system: mock-infected MT-4 cells; test: Cytotoxicity: viability of mock-infected cells by the MTT method; type: cell-based, human
# Protocol: as §1, §2
# [3] = acutely infected MT-4 cells, MTT
SMILES,"EC50 [1, 3]",CC50 ([2]; MTT),EC50 ([1]; HIV-1-infected MT-4 cells),SI [1],CC50 [2]
"Cc1c(C(C)c2c(F)cccc2F)nc(SC2CCCC2)[nH]c1=O (single isomer, unassigned) [MC 1047+]",0.002 µM,> 200 µM,–,–,–
"Cc1c(C(C)c2c(F)cccc2F)nc(SC2CCCC2)[nH]c1=O (single isomer, unassigned) [MC 1047−]",0.7 µM,> 200 µM,–,–,–
"Cc1c(C(C)c2c(F)cccc2F)nc(NC2CCCC2)[nH]c1=O (centres unmarked) [MC1129, 2-Cyclopentylamino-6-{1-(2,6-difluorophenyl)ethyl}-3,4-dihydro-5-methylpyrimidin-4-(3H)-one]",–,–,0.02 µM,"4,500",90 µM
CC1CCC(C)C(Oc2nc(Cc3ccccc3)cc(=O)[nH]2)C1 (centres unmarked) [MC 507],–,–,3.5 µM,40,143 µM
CC1CCC(Oc2nc(Cc3ccccc3)cc(=O)[nH]2)CC1C (centres unmarked) [MC 508],–,–,6.4 µM,9,58 µM
CC1CC(C)CC(Oc2nc(Cc3ccccc3)cc(=O)[nH]2)C1 (centres unmarked) [MC 512],–,–,30 µM,>6.7,> 200 µM
Cc1c(Cc2ccccc2)nc(OC2CC(C)CCC2C)[nH]c1=O (centres unmarked) [MC 531],–,–,3.5 µM,39,138 µM
CCC(C)Sc1nc(C(c2ccccc2)c2ccccc2)cc(=O)[nH]1 (centres unmarked) [MC 796],–,–,> 61 µM,–,61 µM
CCc1c(Cc2ccccc2)nc(SC(C)CC)[nH]c1=O (centres unmarked) [MC 798],–,–,1 µM,>200,> 200 µM
CCc1c(Cc2cccc3ccccc23)nc(SC(C)CC)[nH]c1=O (centres unmarked) [MC 804],–,–,5.3 µM,>34,> 200 µM
CCC(C)Sc1nc(Cc2ccccc2C)cc(=O)[nH]1 (centres unmarked) [MC 806],–,–,1.8 µM,>111,> 200 µM
CCC(C)Sc1nc(Cc2ccc(C)cc2)cc(=O)[nH]1 (centres unmarked) [MC 809],–,–,0.6 µM,333.3,200 µM
CCC(C)Sc1nc(Cc2c(Cl)cccc2Cl)cc(=O)[nH]1 (centres unmarked) [MC 815],–,–,0.14 µM,">1,428",> 200 µM
CCC(C)Sc1nc(Cc2ccccc2[N+](=O)[O-])cc(=O)[nH]1 (centres unmarked) [MC 817],–,–,0.25 µM,>800,> 200 µM
CCC(C)Sc1nc(Cc2ccccc2N)cc(=O)[nH]1 (centres unmarked) [MC 825],–,–,21.2 µM,>9,> 200 µM
CCCCc1c(Cc2ccccc2)nc(SC(C)CC)[nH]c1=O (centres unmarked) [MC 834],–,–,> 200 µM,–,> 200 µM
Cc1ccccc1Cc1cc(=O)[nH]c(SC2CCCC2)n1 [MC 842],–,–,3.4 µM,>59,> 200 µM
O=c1cc(Cc2ccccc2)nc(SCOCc2ccccc2)[nH]1 [MC 843],–,–,45 µM,>4,> 200 µM
CCC(C)Sc1nc(Cc2ccccc2C)c(C)c(=O)[nH]1 (centres unmarked) [MC 844],–,–,1.7 µM,>118,> 200 µM
CCC(C)Sc1nc(Cc2ccc(C)cc2)c(C)c(=O)[nH]1 (centres unmarked) [MC 845],–,–,0.8 µM,32,26 µM
CCC(C)Sc1nc(Cc2c(F)cccc2F)cc(=O)[nH]1 (centres unmarked) [MC 848],–,–,0.04 µM,"5,000",200 µM
CCC(C)Sc1nc(Cc2c(Cl)cccc2Cl)c(C)c(=O)[nH]1 (centres unmarked) [MC 850],–,–,0.05 µM,">4,000",> 200 µM
C=CCc1c(Cc2ccccc2)nc(SC(C)CC)[nH]c1=O (centres unmarked) [MC 852],–,–,3 µM,>67,> 200 µM
CCCc1c(Cc2ccccc2)nc(SC(C)CC)[nH]c1=O (centres unmarked) [MC 856],–,–,12 µM,16,190 µM

SMILES,"EC50 [1, 3]",CC50 ([2]; MTT),EC50 ([1]; HIV-1-infected MT-4 cells),SI [1],CC50 [2]
CCC(C)Sc1nc(Cc2ccc(Cl)cc2)cc(=O)[nH]1 (centres unmarked) [MC 859],–,–,5 µM,24,120 µM
CC(C)Sc1nc(Cc2c(F)cccc2F)cc(=O)[nH]1 [MC 860],–,–,0.2 µM,">1,000",> 200 µM
CCC(C)Sc1nc(Cc2ccc([N+](=O)[O-])cc2)cc(=O)[nH]1 (centres unmarked) [MC 863],–,–,1.5 µM,101,151 µM
CC(C)CSc1nc(Cc2c(F)cccc2F)cc(=O)[nH]1 [MC 866],–,–,0.14 µM,"1,300",182 µM
O=c1cc(Cc2c(F)cccc2F)nc(SC2CCCC2)[nH]1 [MC 867],–,–,0.08 µM,">2,500",> 200 µM
CCC(C)Sc1nc(Cc2ccccc2C(F)(F)F)cc(=O)[nH]1 (centres unmarked) [MC 868],–,–,32 µM,6.2,> 200 µM
CSc1nc(Cc2c(F)cccc2F)c(C)c(=O)[nH]1 [MC 869],–,–,0.19 µM,"1,053",200 µM
O=c1cc(Cc2c(F)cccc2F)nc(SC2CCCCC2)[nH]1 [MC 870],–,–,0.08 µM,"2,500",200 µM
CSc1nc(Cc2c(F)cccc2F)cc(=O)[nH]1 [MC 871],–,–,0.81 µM,247,200 µM
CCCCSc1nc(Cc2c(F)cccc2F)cc(=O)[nH]1 [MC 872],–,–,0.18 µM,900,162 µM
CSc1nc(Cc2c(Cl)cccc2Cl)cc(=O)[nH]1 [MC 877],–,–,3.2 µM,>62,> 200 µM
CC(C)Sc1nc(Cc2c(Cl)cccc2Cl)cc(=O)[nH]1 [MC 878],–,–,1.9 µM,>105,> 200 µM
CCC(C)Sc1nc(Cc2ccccc2F)cc(=O)[nH]1 (centres unmarked) [MC 880],–,–,0.26 µM,769,200 µM
Cc1c(Cc2c(F)cccc2F)nc(SC(C)C)[nH]c1=O [MC 881],–,–,0.05 µM,">4,000",> 200 µM
CCC(C)Sc1nc(Cc2cccc(F)c2)cc(=O)[nH]1 (centres unmarked) [MC 884],–,–,0.7 µM,>286,> 200 µM
CC(C)CSc1nc(Cc2c(Cl)cccc2Cl)cc(=O)[nH]1 [MC 885],–,–,0.45 µM,>444,> 200 µM
CCCCSc1nc(Cc2c(Cl)cccc2Cl)cc(=O)[nH]1 [MC 886],–,–,0.44 µM,>454,> 200 µM
O=c1cc(Cc2c(Cl)cccc2Cl)nc(SC2CCCC2)[nH]1 [MC 888],–,–,0.4 µM,>500,> 200 µM
CCC(C)Sc1nc(Cc2ccc(F)cc2)cc(=O)[nH]1 (centres unmarked) [MC 889],–,–,8.7 µM,23,> 200 µM
CC(C)Sc1nc(C(C)c2ccccc2)cc(=O)[nH]1 (centres unmarked) [MC 890],–,–,0.9 µM,>222,> 200 µM
O=c1cc(Cc2c(Cl)cccc2Cl)nc(SC2CCCCC2)[nH]1 [MC 891],–,–,0.6 µM,>333,> 200 µM
CC(c1ccccc1)c1cc(=O)[nH]c(SC2CCCC2)n1 (centres unmarked) [MC 892],–,–,0.6 µM,333,159 µM
CCC(C)Sc1nc(Cc2cccc([N+](=O)[O-])c2)cc(=O)[nH]1 (centres unmarked) [MC 897],–,–,0.4 µM,392,157 µM
